Laboratory results from PubChem BioAssay AID2060491 (Molecular Pharmacology Branch, DTP, NCI, 2025).
Values joined by “and” are separate entries in the source; they are usually repeats but may differ in a detail not shown here. Equal values may be shown once.

System: 857933-349-R-J2-PDC complex spheroids, viability
Experiment: Anticancer human tumor 857933-349-R-J2-PDC patient-derived colon adenocarcinoma cell line growth inhibition [GQUAD]
Conditions: for viability, T/C: stronger effect = lower value; active = viability on the fitted dose curve at most 10% of control; inactive = the rest
From the text: DNA G-quadruplex Stabilizer Agents in Combinations in Complex Spheroids
A high-throughput screen of multi-cell type tumor spheroids was designed to identify active combinations of DNA G-quadruplex stabilizer agents and targeted small molecules. Complex spheroids include a stromal component modeled by human endothelial cells (HUVEC) and fibroblasts modeled by human mesenchymal stem cells (MSCs). The concentration ranges selected for each drug and investigational agent were based upon clinically achievable concentrations if the clinical Cmax of the agent was known.
Compounds. The drugs and investigational agents: pidnarulex (CX-5461; NSC782164), APTO-253 (NSC789042), BRACO-19 (NSC847499), peposertib (NSC802822), ceralasertib (NSC780249), elimusertib (NSC800525), camonsertib (NSC841442), AZD-1390 (NSC803789), olaparib (NSC753686), talazoparib (NSC767125), ART-558 (NSC835418), sotorasib (NSC818433), MRTX-1133 (NSC836407), SN-38 (NSC673596), topotecan (NSC609699), etoposide (NSC141540), doxorubicin (NSC123127), gemcitabine (NSC613327), 5-fluorouracil (NSC19893), paclitaxel (NSC125973), vemurafenib (NSC761431), panobinostat (NSC761190), R-306465 (JNJ-16241199; NSC773264), adavosertib (NSC754352), TP-3654 (NSC805149), carboplatin (NSC241240), KSQ-4279 (NSC840948), and staurosporine (NSC755774) were obtained from the National Cancer Institute (NCI) Developmental Therapeutics Program Chemical Repository (34). The FDA-approved anticancer drug set is available from the NCI Developmental Therapeutics Program. […] The stock solutions were prepared in dimethyl sulfoxide (DMSO, Sigma-Aldrich, St. Louis, MO, cat. D2650) at 800-fold the tested concentration and stored at -70 degrees C prior to their use. All drugs and investigational agents were tested over a range starting from a high concentration at or near the clinical Cmax and decreasing in half-log increments. If the clinical Cmax for an agent had not been determined, the highest concentration tested was 10 microM.
2.3 Cell Culture. All cells were maintained in an incubator at 37 degrees C and 5% CO2 with 95% humidity. The PDC lines were cultured according to standard operating procedures established by the NCI PDMR. All PDCs were thawed and cultured in Matrigel-coated flasks prepared with a working solution of 1X Ham's F-12 nutrient mix, without supplementation (Invitrogen, cat. 11765054), 100 U/mL penicillin-streptomycin (Invitrogen, cat. 15140122), and 2.5% Matrigel (Corning Inc., cat. 354248) for the first three passages. The 857933-349-R-J2-PDC line was cultured in 6C/Colon 1B media, which includes advanced DMEM/F-12 (Thermo Fisher Scientific, cat. 12634028), 10 mM HEPES (Thermo Fisher Scientific, cat. 15630080), 1X GlutaMAX supplement (Thermo Fisher Scientific, cat. 35050061), 0.1 mg/mL primocin (InvivoGen, cat. ant-pm-2), 10% defined fetal bovine serum, heat inactivated (HyClone Laboratories Inc., cat. SH30070.03HI), 50% L-WRN conditioned media (ATCC, cat. CRL-3276), 1.25 mM N-Acetyl-L-cysteine (Sigma-Aldrich, cat. A9165), 10 mM nicotinamide (Sigma-Aldrich, cat. N0636), 1X B-27 supplement (Thermo Fisher Scientific, cat. 17504044), 1X N-2 supplement (Thermo Fisher Scientific, cat. 17502048), 10 microM Y-27632 dihydrochloride (Tocris Bioscience, cat. 1254), and 50 ng/mL human EGF recombinant protein (Thermo Fisher Scientific, cat. PHG0311). The 485176-168-R4-J1-PDC line was cultured in Panc media, which includes all 6C/Colon 1B media components plus 100 ng/mL human FGF-10 (Thermo Fisher Scientific, cat. 100-26), 500 nM SB-431542 (Selleckchem, cat. S1067), and gastrin (Tocris, cat. 3006).
[…]

[1] = curve of first compound, second compound 0.0316 µM
[2] = curve of first compound, second compound 0.1 µM
[3] = curve of first compound, second compound 0.316 µM
[4] = curve of first compound, second compound 1 µM
[5] = curve of first compound, second compound 3.16 µM
[6] = curve of first compound, second compound 10 µM
[7] = second compound 0.0316 µM, first compound 0.0316 µM
[8] = second compound 0.0316 µM, first compound 0.1 µM
[9] = second compound 0.0316 µM, first compound 0.316 µM
[10] = second compound 0.0316 µM, first compound 1 µM
[11] = second compound 0.0316 µM, first compound 3.16 µM
[12] = second compound 0.0316 µM, first compound 10 µM
[13] = second compound 0.1 µM, first compound 0.0316 µM
[14] = second compound 0.1 µM, first compound 0.1 µM
[15] = second compound 0.1 µM, first compound 0.316 µM
[16] = second compound 0.1 µM, first compound 1 µM
[17] = second compound 0.1 µM, first compound 3.16 µM
[18] = second compound 0.1 µM, first compound 10 µM
[19] = second compound 0.316 µM, first compound 0.0316 µM
[20] = second compound 0.316 µM, first compound 0.1 µM
[21] = second compound 0.316 µM, first compound 0.316 µM
[22] = second compound 0.316 µM, first compound 1 µM
[23] = second compound 0.316 µM, first compound 3.16 µM
[24] = second compound 0.316 µM, first compound 10 µM
[25] = second compound 1 µM, first compound 0.0316 µM
[26] = second compound 1 µM, first compound 0.1 µM
[27] = second compound 1 µM, first compound 0.316 µM
[28] = second compound 1 µM, first compound 1 µM
[29] = second compound 1 µM, first compound 3.16 µM
[30] = second compound 1 µM, first compound 10 µM
[31] = second compound 3.16 µM, first compound 0.0316 µM
[32] = second compound 3.16 µM, first compound 0.1 µM
[33] = second compound 3.16 µM, first compound 0.316 µM
[34] = second compound 3.16 µM, first compound 1 µM
[35] = second compound 3.16 µM, first compound 3.16 µM
[36] = second compound 3.16 µM, first compound 10 µM
[37] = second compound 10 µM, first compound 0.0316 µM
[38] = second compound 10 µM, first compound 0.1 µM
[39] = second compound 10 µM, first compound 0.316 µM
[40] = second compound 10 µM, first compound 1 µM
[41] = second compound 10 µM, first compound 3.16 µM
[42] = second compound 10 µM, first compound 10 µM
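Also: spheroids exposed to compounds for one week before readout.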
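For viability, T/C in this document: percent viability relative to vehicle DMSO wells taken as 100%.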

O=C(c1cc(Cc2n[nH]c(=O)c3ccccc23)ccc1F)N1CCN(C(=O)C2CC2)CC1 + Cc1[nH]c2ccc(F)cc2c1-c1nc2c3cccnc3c3ncccc3c2[nH]1
> 10 µM: IC50 [1] | IC50 [2] | IC50 [3] | IC50 [4] | IC50 [5] | IC50 [6]
inactive: viability, T/C [7] 108% | viability, T/C [8] 95.7% | viability, T/C [9] 98.1% | viability, T/C [10] 96.8% | viability, T/C [11] 118% | viability, T/C [12] 93.4% | viability, T/C [13] 113% | viability, T/C [14] 112% | viability, T/C [15] 92% | viability, T/C [16] 100% | viability, T/C [17] 98.5% | viability, T/C [18] 101% | viability, T/C [19] 102% | viability, T/C [20] 110% | viability, T/C [21] 106% | viability, T/C [22] 97.1% | viability, T/C [23] 103% | viability, T/C [24] 90.9% | viability, T/C [25] 92.5% | viability, T/C [26] 99.7% | viability, T/C [27] 95.7% | viability, T/C [28] 97.6% | viability, T/C [29] 103% | viability, T/C [30] 96.5% | viability, T/C [31] 99.2% | viability, T/C [32] 105% | viability, T/C [33] 98.3% | viability, T/C [34] 98.6% | viability, T/C [35] 100% | viability, T/C [36] 108% | viability, T/C [37] 99.9% | viability, T/C [38] 100% | viability, T/C [39] 101% | viability, T/C [40] 99.8% | viability, T/C [41] 99.3% | viability, T/C [42] 98%

COc1ncnc(C2CC2)c1-c1ncc2cnn(Cc3ccc(-c4nc(C(F)(F)F)cn4C(C)C)cc3)c2n1 + Cc1[nH]c2ccc(F)cc2c1-c1nc2c3cccnc3c3ncccc3c2[nH]1
inactive: viability, T/C [7] 102% | viability, T/C [8] 104% | viability, T/C [9] 99% | viability, T/C [10] 104% | viability, T/C [11] 109% | viability, T/C [12] 103% | viability, T/C [13] 106% | viability, T/C [14] 106% | viability, T/C [15] 107% | viability, T/C [16] 106% | viability, T/C [17] 98% | viability, T/C [18] 102% | viability, T/C [19] 102% | viability, T/C [20] 100% | viability, T/C [21] 96.1% | viability, T/C [22] 100% | viability, T/C [23] 94.3% | viability, T/C [24] 95.6% | viability, T/C [25] 102% | viability, T/C [26] 91.4% | viability, T/C [27] 96.3% | viability, T/C [28] 87.9% | viability, T/C [29] 98.4% | viability, T/C [30] 90.7% | viability, T/C [31] 98% | viability, T/C [32] 83.1% | viability, T/C [33] 84.5% | viability, T/C [34] 83.2% | viability, T/C [35] 92.5% | viability, T/C [36] 83.4% | viability, T/C [37] 86.3% | viability, T/C [38] 87.7% | viability, T/C [39] 84.6% | viability, T/C [40] 91.3% | viability, T/C [41] 90.3% | viability, T/C [42] 88.2%
> 10 µM: IC50 [1] | IC50 [2] | IC50 [3] | IC50 [4] | IC50 [5] | IC50 [6]

CC[C@@]1(O)C(=O)OCc2c1cc1n(c2=O)Cc2cc3c(CN(C)C)c(O)ccc3nc2-1
0.115 µM and 0.282 µM and 0.138 µM: IC50 (curve of compound)
inactive: viability, T/C (compound 0.000999 µM) 98.7% and 105% and 103% | viability, T/C (compound 0.00316 µM) 82.7% and 104% and 89% | viability, T/C (compound 0.00999 µM) 92.6% and 97.9% and 98.2% | viability, T/C (compound 0.0316 µM) 70.4% and 96.6% and 71.6% | viability, T/C (compound 0.0999 µM) 52.3% and 67.8% and 57.9% | viability, T/C (compound 0.316 µM) 40.8% and 48.1% and 34.1%
